{"source": "patent US20250382631A1", "about": "“PROTAC-CID SYSTEMS FOR USE IN MULTIPLEX GENE REGULATION” (William Marsh Rice University, priority 2022, published 2025)", "key": {"[1]": {"details": "after MZ1 administration, FIG. 23"}, "[2]": {"system": "endogenous BRD4 (BRD4S, BRD4L)", "assay": "Immunoblot of endogenous BRD4 in HEK293T cells", "format": "cell-based, human", "details": "MZ1 20 nM and 100 nM, 48 h, HEK293T with MZ1 PROTAC-CID, FIG. 22", "description": "Immunoblots and RT-qPCR. Mice liver tissues or culture cells were lysed in RIPA buffer (Abcam no. ab156034) supplemented with phosphatase inhibitor (Thermo Fisher Scientific no. PIA32957) and protease inhibitors (Fishers cientific no. A32965). Lysates were resolved by 10% Tris-glycine SDS-PAGE, transferred to PVDF membrane (Bio-Rad no. 1620177), and blotted with antibodies BRD4 (Abcam, ab128874), GAPDH (Cell Signaling Technology, 2118L), luciferase (ABclonal, requested), Ran (ABclonal, A0976), Hsp90 (Cell Signaling Technology, 4874). Images were acquired using LumiQuant AC600 (Acuronbio Technology Inc), quantification analysis was processed by ImageJ software. Trizol reagent (Sigma no. T9424) was used to extract total RNA from liver. RNAs were purified using RNeasy Mini kit (QIAGEN no. 4106). The quality and concentration of total RNA were checked on NanoDrop™ 2000/2000c Spectrophotometers (Thermo Fisher Scientific no. ND2000LAPTOP). Reverse transcription of total RNA was performed using a Applied Biosystems™ High-Capacity cDNA Reverse Transcription Kit (Thermo Fisher Scientific no. 4368813) and qPCR was conducted with SYBR Green Master Mix (Abclonal no. RK21203) on QuantStudio 6 Real-time PCR system (Thermo Fisher Scientific)."}, "[3]": {"system": "mutated Cre gene with 2-bp micro-deletion / GFP expression in HEK293T cells", "assay": "Inducible prime editing repair of micro-deleted Cre, GFP reporter", "format": "cell-based, human", "details": "100 nM dTAG-13, FIGS. 3F and 18", "experimental": "Fluorescence assay using flow cytometry analysis. Cells were treated with 0.05% Trpsin EDTA (Thermo Fisher Scientific no. 25300054) or TrypLE (Thermo Fisher Scientific no. 12605028) after transfection and centrifuged at 3000 g for 5 min. Supernatant was removed and the cell pellet was resuspended with 200 μL phosphate buffered saline (PBS) without calcium and magnesium (Thermo Fisher Scientific no. 10010023). Cells were transferred into 12×75 mm flow tubes (Global Scientific no. 110410). Cells were analyzed by MA900 flow cytometry (SONY). 405 nm laser (FL6 filter) was used for testing the BFP channel. 488 nm (FL1 filter) was used for testing the EYFP and GFP channel. Automated alignment using Automatic Setup Beads kit (SONY no. LE-B3001) is performed before running samples. In FIGS. 3A, 3B, and 17, experiments were performed under 2% FSC, 17% BSC, 24% FL1. […] Flow cytometry data was processed and analyzed by FlowJo 10. […] The mean intensity of the reporter fluorescent protein (BFP and EYFP) in viable and single cell populations were calculated by FlowJo 10 as the mean of FL6-A and FL1-A. When calculating the fold change of relative fluorescence units (RFU), the relative fluorescence units of EYFP was calculated by dividing the mean of fluorescence intensity of EYFP with the mean of BFP fluorescence intensity for normalization as the following formula: […]"}}, "data": [{"compound": "Cc1ncsc1-c1ccc(CNC(=O)[C@@H]2C[C@@H](O)CN2C(=O)[C@@H](NC(=O)COCCOCCOCCNC(=O)C[C@@H]2N=C(c3ccc(Cl)cc3)c3c(sc(C)c3C)-n3c(C)nnc32)C(C)(C)C)cc1", "note": "[MZ1]", "values": [{"measurement": "abnormality or body weight change", "setting": "[1]", "value": "no abnormality or body weight change"}, {"measurement": "degradation of endogenous BRD4 isoforms", "setting": "[2]", "value": "only observed the degradation of the short isoform of BRD4 (BRD4S), not the conventional long isoform BRD4 (BRD4L)"}]}, {"compound": "CC[C@H](C(=O)N1CCCC[C@H]1C(=O)O[C@H](CCc1ccc(OC)c(OC)c1)c1ccccc1OCC(=O)NCCCCCCOc1cccc2c1C(=O)N(C1CCC(=O)NC1=O)C2=O)c1cc(OC)c(OC)c(OC)c1", "note": "(stereo partly drawn) [dTAG-13]", "values": [{"measurement": "increase in GFP expression (prime editing repair of micro-deleted Cre)", "setting": "[3]", "value": "more than 25 fold"}]}]}
